Laboratory results as given in patent US9051321B2, “Heterocyclic acrylamides and their use as pharmaceuticals” (FAB PHARMA S.A.S, priority 2009, dated 2015).

Assays:
HSA (human albumin) = HSA (human albumin) (Homo sapiens (Human), UniProt P02768); assay: HSA binding analysis using a chiral HSA column; type: in vitro ADME; settings: for k′ (capacity factor): 37° C., pH 7.0, k′=(Tr-T0)/T0; for HSA binding Conclusion: classification of AB %
Text: The test system used in this analysis was an HSA chiral column.
The relationship between the retention time (Tr) and percentage of albumin binding (AB %) depended on the dead time (T0) and the capacity factor (k′): AB %=[k′/(k′+1)]*100 • where k′=(Tr-T0)/T0

[1] = tested on: methicillin susceptible Staphylococcus aureus strain ATCC 29213; assay: In vivo antibacterial activity, experimental model of thigh infection in neutropenic mice; settings: 1.5 h after infection, neutropenic female Swiss mice, 20 h
E. coli FabI = E. coli FabI (Escherichia coli (strain K12), UniProt P0AEK4); settings: cited from earlier work
E. coli FabI, sequence (P0AEK4 whole entry): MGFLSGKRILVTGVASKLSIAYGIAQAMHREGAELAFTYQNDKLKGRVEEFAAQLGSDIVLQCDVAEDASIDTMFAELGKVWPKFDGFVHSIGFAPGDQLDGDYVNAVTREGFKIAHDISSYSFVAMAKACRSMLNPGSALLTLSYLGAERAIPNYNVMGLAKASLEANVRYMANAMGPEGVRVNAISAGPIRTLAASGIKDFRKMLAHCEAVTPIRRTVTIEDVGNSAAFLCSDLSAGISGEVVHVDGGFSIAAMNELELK

HSA (human albumin), sequence (P02768 25-609): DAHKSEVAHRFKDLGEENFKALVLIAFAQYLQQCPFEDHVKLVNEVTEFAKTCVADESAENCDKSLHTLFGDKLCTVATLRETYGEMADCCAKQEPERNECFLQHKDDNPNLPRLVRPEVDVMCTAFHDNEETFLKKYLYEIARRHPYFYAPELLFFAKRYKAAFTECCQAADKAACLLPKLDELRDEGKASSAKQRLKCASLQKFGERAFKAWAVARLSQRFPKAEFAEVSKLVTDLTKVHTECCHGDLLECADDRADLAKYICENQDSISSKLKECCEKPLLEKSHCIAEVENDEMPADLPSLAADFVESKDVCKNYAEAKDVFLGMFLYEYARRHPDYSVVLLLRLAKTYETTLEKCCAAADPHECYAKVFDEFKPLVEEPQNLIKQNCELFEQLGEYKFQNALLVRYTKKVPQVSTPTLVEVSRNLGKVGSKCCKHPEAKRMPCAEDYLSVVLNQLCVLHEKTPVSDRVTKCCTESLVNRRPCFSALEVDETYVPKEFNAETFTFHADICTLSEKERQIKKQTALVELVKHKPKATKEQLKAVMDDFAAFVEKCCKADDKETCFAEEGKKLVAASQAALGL

Row | Structure (SMILES) | affinity in vitro to human albumin (HSA (human albumin)) | k′ (capacity factor) (HSA (human albumin)) | HSA binding Conclusion (HSA (human albumin)) | in vivo antibacterial activity (bacterial burden in the thigh of infected mice) ([1]; 100 mg/kg orally) | in vivo antibacterial activity (bacterial burden in the thigh of infected mice) ([1]; 50 mg/kg subcutaneously) | type of inhibition of E. coli FabI (E. coli FabI)
1 | O=C1CCc2cc(/C=C/C(=O)N3CC(OCc4cccs4)C3)cnc2N1 [Example 12, 6-{(1E)-3-Oxo-3-[3-(2-thienylmethoxy)azetidin-1-yl]prop-1-en-1-yl}-3,4-dihydro-1,8-naphthyridin-2(1H)-one] | low affinity | 0.826 | Low binding (AB≦75%: Low binding) | able to protect mice against thigh dissemination | – | –
2 | CCCCCOC1CN(C(=O)/C=C/c2cnc3c(c2)CCC(=O)N3)C1 [Example 15, 6-{(1E)-3-Oxo-3-[3-(pentyloxy)azetidin-1-yl]prop-1-en-1-yl}-3,4-dihydro-1,8-naphthyridin-2(1H)-one] | – | – | – | – | able to protect mice against thigh dissemination | –
3 | O=C1CCc2cc(/C=C/C(=O)N3CC(OCCc4cccs4)C3)cnc2N1 [Example 29, (E)-6-(3-Oxo-3-(3-(2-(thiophen-2-yl)ethoxy)azetidin-1-yl)prop-1-enyl)-3,4-dihydro-1,8-naphthyridin-2(1H)-one] | low affinity | 1.259 | Low binding (AB≦75%: Low binding) | – | – | –
4 | O=C1CCc2cc(/C=C/C(=O)N3CC(c4cc5ccccc5o4)C3)cnc2N1 [Example 59, (E)-6-(3-(3-(Benzofuran-2-yl)azetidin-1-yl)-3-oxoprop-1-enyl)-3,4-dihydro-1,8-naphthyridin-2(1H)-one] | moderate affinity | 4.678 | Moderate | – | – | –
5 | CCCCOC1CN(C(=O)/C=C/c2cnc3c(c2)CC2(CCN(C)CC2)C(=O)N3)C1 [Example 63, (E)-6-(3-(3-Butoxyazetidin-1-yl)-3-oxoprop-1-enyl)-1′-methyl-1H-spiro[[1,8]naphthyridine-3,4′-piperidin]-2(4H)-one] | low affinity | 1.288 | Low binding (AB≦75%: Low binding) | – | – | –
6 | Cc1c(C2CN(C(=O)/C=C/c3cnc4c(c3)CCC(=O)N4)C2)oc2ccccc12 [Example 67, (E)-6-(3-(3-(3-Methylbenzofuran-2-yl)azetidin-1-yl)-3-oxoprop-1-enyl)-3,4-dihydro-1,8-naphthyridin-2(1H)-one] | moderate affinity | 8.360 | Moderate | – | – | –
7 | Cc1c(C2CN(C(=O)/C=C/c3cnc4c(c3)CC3(CCN(C)CC3)C(=O)N4)C2)oc2ccccc12 [Example 68, (E)-1′-Methyl-6-(3-(3-(3-methylbenzofuran-2-yl)azetidin-1-yl)-3-oxoprop-1-enyl)-1H-spiro[[1,8]naphthyridine-3,4′-piperidin]-2(4H)-one] | high affinity | 11.216 | High binding (AB≦90%: High binding) | – | – | –
8 | CN1CCC2(CC1)Cc1cc(/C=C/C(=O)N3CC(c4cc5ccccc5o4)C3)cnc1NC2=O [Example 69, (E)-6-(3-(3-(Benzofuran-2-yl)azetidin-1-yl)-3-oxoprop-1-en-1-yl)-1′-methyl-1H-spiro[[1,8]naphthyridine-3,4′-piperidin]-2(4H)-one] | moderate affinity | 7.730 | Moderate | – | – | –
9 | CCCO/N=C(\C)C1CN(C(=O)/C=C/c2cnc3c(c2)CCC(=O)N3)C1 [Example 70, 6-((E)-3-Oxo-3-(3-((E)-1-(propoxyimino)ethyl)azetidin-1-yl)prop-1-enyl)-3,4-dihydro-1,8-naphthyridin-2(1H)-one] | low affinity | 0.580 | Low binding (AB≦75%: Low binding) | – | – | –
10 | CCCO/N=C(/C)C1CN(C(=O)/C=C/c2cnc3c(c2)CCC(=O)N3)C1 [Example 71, 6-((E)-3-Oxo-3-(3-((Z)-1-(propoxyimino)ethyl)azetidin-1-yl)prop-1-enyl)-3,4-dihydro-1,8-naphthyridin-2(1H)-one] | low affinity | 0.404 | Low binding (AB≦75%: Low binding) | – | – | –
11 | Oc1cc(Cl)ccc1Oc1ccc(Cl)cc1Cl [Triclosan] | – | – | – | – | – | reversible, tight-binding inhibitor
